Residue numbers refer to the chain shown, from its start.
Columns and labels:
[1] = target: T1, hVAChT Y60H (Homo sapiens, UniProt Q16572, Y60H); assay: [3H]vesamicol saturation binding; conditions: pH 7.4
T1 sequence (Q16572 1-532 Y60H): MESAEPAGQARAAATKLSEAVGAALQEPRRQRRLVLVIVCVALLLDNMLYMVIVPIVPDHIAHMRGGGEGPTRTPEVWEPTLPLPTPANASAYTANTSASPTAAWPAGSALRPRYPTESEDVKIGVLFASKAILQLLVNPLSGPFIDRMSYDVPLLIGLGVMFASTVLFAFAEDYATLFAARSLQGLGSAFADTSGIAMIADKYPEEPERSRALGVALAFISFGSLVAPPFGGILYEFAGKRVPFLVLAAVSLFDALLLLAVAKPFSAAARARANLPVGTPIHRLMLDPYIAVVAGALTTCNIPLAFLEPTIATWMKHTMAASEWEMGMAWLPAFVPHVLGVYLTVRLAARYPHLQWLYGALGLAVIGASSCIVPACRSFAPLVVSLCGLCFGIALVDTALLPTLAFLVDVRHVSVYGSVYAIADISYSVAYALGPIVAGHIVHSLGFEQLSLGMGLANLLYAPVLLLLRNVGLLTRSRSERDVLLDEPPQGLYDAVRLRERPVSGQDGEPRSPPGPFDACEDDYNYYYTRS

[2] = target: T2, hVAChT W325F (Homo sapiens, UniProt Q16572, W325F); assay: [3H]vesamicol saturation binding; conditions: pH 7.4
T2 sequence (Q16572 1-532 W325F): T1 sequence (Q16572 1-532 Y60H) with H60Y, W325F

[3] = target: T3, hVAChT Y60A (Homo sapiens, UniProt Q16572, Y60A); assay: ACh equilibrium binding by competition against [3H]vesamicol
T3 sequence (Q16572 1-532 Y60A): T1 sequence (Q16572 1-532 Y60H) with H60A

[4] = target: T4, hVAChT A321F (Homo sapiens, UniProt Q16572, A321F); assay: as above
T4 sequence (Q16572 1-532 A321F): T1 sequence (Q16572 1-532 Y60H) with H60Y, A321F

[5] = target: T5, hVAChT C391A (Homo sapiens, UniProt Q16572, C391A); assay: [3H]ACh transport; assay type: biochemical
T5 sequence (Q16572 1-532 C391A): T1 sequence (Q16572 1-532 Y60H) with H60Y, C391A

Compound | Bmax, maximal specific [3H]vesamicol binding (VAChT expression level) [1] [pmol/mg] | Bmax, maximal specific [3H]vesamicol binding (VAChT expression level) [2] [pmol/mg] | Kd [3] [mM] | FHA, fraction of the ACh sites that have high affinity ([3]; Y60A hVAChT, pH 7.4) | Kd [4] [mM] | FHA, fraction of the ACh sites that have high affinity ([4]; A321F hVAChT, pH 7.4) | ACh transport faster than wild-type ([5]; C391A hVAChT vs wild-type) | Vmax/Bmax, ACh transport normalized to Bmax ([5]; C391A hVAChT, pH 7.4) [min⁻¹] | Km ([5]; read-out: KM, Michaelis-Menten constant for ACh transport, C391A hVAChT, pH 7.4) [µM]
O[C@@H]1CCCC[C@H]1N1CCC(c2ccccc2)CC1 (racemic) [vesamicol, ( )-trans-2-(4-phenylpiperidino)cyclohexanol] | 15 ± 1 | 75 ± 3 |  |  |  |  |  |  | 
CC(=O)OCC[N+](C)(C)C [ACh, acetylcholine] |  |  | 8.2 ± 0.7 | 0.92 ± 0.02 | 15 ± 2 | 0.90 ± 0.06 | about 2 times | 15 ± 2 | 1800 ± 300

— publication PMC2962730 (Journal of neurochemistry, 2010)
